Reference: the supplement of paper PMC8671470

Legend:
Details in all cases: 72 h
MV4-11 [1] = test system: MV4-11
Procedure, shortened: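 For the IC50, dose–response curves were fitted with a log-logistic model. The data came from fifteen myeloid leukaemia cell lines grown in RPMI 1640 at densities in the linear growth range and incubated in 384-well plates for 72 h at 37 °C under 5% CO2. Doses were five tenfold steps from 1 to 10,000 nM in duplicate, and luminescent ATP viability was normalised to vehicle and to a positive control at 10 µM before four-parameter fitting.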

HL-60 [2] = test: area under dose-response curve (viability, 1 nM-10 uM) (fraction (0-1)); higher = more sensitive
Procedure, shortened: (§1)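 A rescreen of the full library used HL-60 cells in RPMI 1640 with 10% FBS on 384-well plates, run in duplicate at five tenfold concentrations (1–10,000 nM). Each screen included DMSO or 100 nM of one of three metabolic inhibitors and ran 72 h at 37 °C, 5% CO2. CellTiter-Glo viability was scaled between DMSO and 10 μM proteasome-inhibitor wells. Any area under the curve comes from four-parameter log-logistic fits with drc and PharmacoGx.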

HL-60 [3] = test: cell viability (% survival relative to DMSO control); higher = less cytotoxic
Procedure, shortened: as §1

MV4-11 [4] = test: cell viability (% survival relative to DMSO control, bortezomib = 0%); higher = less cytotoxic
Procedure, shortened: (§2)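 In 384-well plates pre-printed with compounds at 1, 10, 100, 1000 or 10000 nM, duplicate wells received cells from 10 AML and 5 CML lines at densities within the linear growth range. The plates stayed at 37 °C with 5% CO2 for 72 h before CellTiter-Glo luminescence was recorded. Each entry is averaged percent survival. Scaling placed vehicle at 100% and a 10 µM positive control at 0%.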

KU-812 = test: as above
Procedure, shortened: as §2

LAMA-84 = test: as above
Procedure, shortened: as §2

NOMO-1 = test: as above
Procedure, shortened: as §2

BV-173 = test: as above
Procedure, shortened: as §2

THP-1 = test: as above
Procedure, shortened: as §2

SHI-1 = test: as above
Procedure, shortened: as §2

MOLM-13 = test: as above
Procedure, shortened: as §2

K-562 = test: as above
Procedure, shortened: as §2

KG-1 = test: as above
Procedure, shortened: as §2

ML-2 = test: as above
Procedure, shortened: as §2

HL-60 [5] = test: as above
Procedure, shortened: as §2

Mono-Mac-6 = test: as above
Procedure, shortened: as §2

KCL-22 = test: as above
Procedure, shortened: as §2

HEL = test: as above
Procedure, shortened: as §2

CCCCCCCNC=O [N-Heptyl-Formamide]
Details	IC50 (cell viability) [nM]
MV4-11 [1]	> 10000

Details	area under dose-response curve, co-treatment: AZD3965 100 nM	area under dose-response curve, co-treatment: DMSO vehicle	area under dose-response curve, co-treatment: GSK2194069 100 nM	area under dose-response curve, co-treatment: pictilisib 100 nM	cell viability, 1 nM [%]	cell viability, 10 nM [%]	cell viability, 100 nM [%]	cell viability, 1000 nM [%]	cell viability, 10000 nM [%]
BV-173	–	–	–	–	112	98.3	90.4	123	95.5
HEL	–	–	–	–	109	97.9	80.9	112	92.1
HL-60 [2]	< 0.0301	< 0.0301	< 0.0301	< 0.0301	–	–	–	–	–
HL-60 [5]	–	–	–	–	108	115	95.3	143	91.7
K-562	–	–	–	–	116	108	99	122	96.3
KCL-22	–	–	–	–	101	109	90.1	113	98.8
KG-1	–	–	–	–	99.6	110	86.4	108	95.5
KU-812	–	–	–	–	108	97.3	98.9	107	91.7
LAMA-84	–	–	–	–	101	99.3	104	112	98.1
ML-2	–	–	–	–	121	106	88.8	117	90.9
MOLM-13	–	–	–	–	113	98.3	89.9	108	90.3
MV4-11 [4]	–	–	–	–	106	105	93.7	105	94.4
Mono-Mac-6	–	–	–	–	110	97.3	101	114	96.8
NOMO-1	–	–	–	–	110	96.7	100	113	93
SHI-1	–	–	–	–	109	104	101	114	97.1
THP-1	–	–	–	–	110	97.1	97.1	104	96.7

cell viability [%], HL-60 [3]
Details	0.001 µM	0.01 µM	0.1 µM	1 µM	10 µM
co-treatment: AZD3965 100 nM	104.63	106	98	95	97.3
co-treatment: DMSO vehicle	101.3	78.3	98.6	97.7	101
co-treatment: GSK2194069 100 nM	99.7	103	99.6	97.7	94
co-treatment: pictilisib 100 nM	99.8	108	78.6	102	100

Nc1ccn([C@@H]2O[C@H](CO)[C@@H](O)C2(F)F)c(=O)n1 [Gemcitabine]
Details	IC50 (cell viability) [nM]
MV4-11 [1]	1.88

Details	area under dose-response curve, co-treatment: AZD3965 100 nM	area under dose-response curve, co-treatment: DMSO vehicle	area under dose-response curve, co-treatment: GSK2194069 100 nM	area under dose-response curve, co-treatment: pictilisib 100 nM	cell viability, 1 nM [%]	cell viability, 10 nM [%]	cell viability, 100 nM [%]	cell viability, 1000 nM [%]	cell viability, 10000 nM [%]
BV-173	–	–	–	–	83.3	-0.488	0.0466	0.053	-0.136
HEL	–	–	–	–	105	1.42	-0.289	0.472	0.991
HL-60 [2]	0.648	0.631	0.634	0.663	–	–	–	–	–
HL-60 [5]	–	–	–	–	104	38.9	-0.42	0.321	0.435
K-562	–	–	–	–	92.6	62.1	37.3	29.6	28.7
KCL-22	–	–	–	–	104	37.7	9.55	8.82	9.48
KG-1	–	–	–	–	105	33.4	9.8	11.5	9.39
KU-812	–	–	–	–	90.8	17.4	7.87	6.94	6.04
LAMA-84	–	–	–	–	95.6	45.7	5.22	4.64	4.9
ML-2	–	–	–	–	96.3	3.45	1.35	2.33	2.18
MOLM-13	–	–	–	–	96.6	2.43	0.0219	0.303	0.34
MV4-11 [4]	–	–	–	–	78.5	-0.0353	-0.464	0.602	0.268
Mono-Mac-6	–	–	–	–	95.1	2.34	1.01	0.852	0.24
NOMO-1	–	–	–	–	103	24.5	3.18	1.37	0.238
SHI-1	–	–	–	–	101	25.9	34.1	0.0306	-0.276
THP-1	–	–	–	–	110	44.4	30.5	23.5	20.4

cell viability [%], HL-60 [3]
Details	0.001 µM	0.01 µM	0.1 µM	1 µM	10 µM
co-treatment: AZD3965 100 nM	101	82.7	5.92	4.29	3.15
co-treatment: DMSO vehicle	99.76	85.6	7.57	6.18	3.121
co-treatment: GSK2194069 100 nM	104	84.92	7.69	5.54	3.32
co-treatment: pictilisib 100 nM	97.8	74.5	6.77	5.09	2.52
